In brackets after ≈: the same amount, converted by molar mass. Like-named read-outs stand apart in the source and are kept apart here.
How the values were obtained:
Type in all cases: cell-based
[1] = tested on: Shigella flexneri (ATCC 12022); experiment: microbe, parasite or virus in culture; conditions: ATCC12022
[2] = tested on: E. coli 0175:H7 (NCTC 12900); experiment: microbe, parasite or virus in culture; conditions: Escherichia coli, NCTC12900
[3] = tested on: Enterococcus faecalis (ATCC 29212); experiment: Broth microdilution MIC, E. faecalis
[4] = tested on: Bifidobacterium bifidum (ATCC 29521); experiment: Broth microdilution MIC, B. bifidum
[5] = tested on: Bifidobacterium animalis spp. lactis (DSMZ 10140); experiment: Broth microdilution MIC, B. animalis spp. lactis; conditions: DSMZ10140
[6] = tested on: Yersinia enterocolitica (ATCC 9610); experiment: Broth microdilution MIC, Y. enterocolitica; conditions: read-out: MIC
[7] = tested on: diarrheagenic bacteria (12 strains); experiment: microbe, parasite or virus in culture
[8] = tested on: Vibrio parahaemolyticus (ATCC 17802); experiment: Broth microdilution MIC, V. parahaemolyticus; conditions: ATCC17802, growth inhibited by ≥80%, read-out: MIC
[9] = tested on: Listeria monocytogenes (ATCC 7644); experiment: Broth microdilution MIC, L. monocytogenes
[10] = tested on: Clostridium perfringens (DSMZ 11778); experiment: microbe, parasite or virus in culture; conditions: DSMZ11778
[11] = tested on: Bifidobacterium longum ssp. longum (DSMZ 20219); experiment: Broth microdilution MIC, B. longum ssp. longum; conditions: DSMZ20219; Bifidobacterium longum ssp. longum; growth inhibited by ≥80%; read-out: MIC
[12] = tested on: Bifidobacterium adolescentis (DSMZ 20087); experiment: Broth microdilution MIC, B. adolescentis
[13] = tested on: Bacteroides fragilis (ATCC 25285); experiment: Broth microdilution MIC, B. fragilis
[14] = tested on: Clostridium difficile (DSMZ 12056); experiment: microbe, parasite or virus in culture; conditions: Clostridioides difficile, DSMZ12056
[15] = tested on: Lactobacillus reuteri (CCM 3625); experiment: Broth microdilution MIC, L. reuteri; conditions: Limosilactobacillus reuteri, CCM3625
[16] = tested on: probiotic bacteria (9 strains); experiment: Broth microdilution MIC, probiotic bacteria as a group (mean or range over strains); conditions: read-out: x¯ -PB ± SD: mean MIC for probiotic bacteria
[17] = tested on: Bacillus cereus (ATCC 14579); experiment: Broth microdilution MIC, B. cereus; conditions: median/mode, read-out: MIC
[18] = tested on: Salmonella enterica ssp. enterica serovar Enteritidis (ATCC 13076); experiment: Broth microdilution MIC, Salmonella Enteritidis
[19] = tested on: Lactobacillus casei (DSMZ 20011); experiment: Broth microdilution MIC, L. casei; conditions: Lacticaseibacillus casei, DSMZ20011, Lactobacillus casei, read-out: MIC
[20] = tested on: Bifidobacterium breve (ATCC 15700); experiment: Broth microdilution MIC, B. breve; conditions: ATCC15700, growth inhibited by ≥80%, read-out: MIC
[21] = tested on: Lactobacillus rhamnosus (CCM 7091); experiment: Broth microdilution MIC, L. rhamnosus; conditions: Lacticaseibacillus rhamnosus, CCM7091
[22] = tested on: S. enterica ssp. enterica serovar Typhimurium (ATCC 14028); experiment: Broth microdilution MIC, Salmonella Typhimurium
[23] = tested on: Escherichia coli (ATCC 25922); experiment: Broth microdilution MIC, E. coli
[24] = tested on: FHs 74 Int (ATCC CCL 241) intestinal normal cells; experiment: MTT cytotoxicity assay, FHs 74 Int; conditions: 72 h, FHs 74 Int (intestinal normal cells), MTT; for IC50 / IC80: FHs74Int; for IC50: read-out: IC50 ± SD; for IC80: read-out: IC80 ± SD (80% inhibitory concentration of proliferation)
[25] = tested on: Caco-2 (ATCC HTB 37) intestinal cancer cells; experiment: MTT cytotoxicity assay, Caco-2; conditions: Homo sapiens, Caco-2, MTT, 72 h; for IC50: read-out: IC50 ± SD; for IC80: read-out: IC80 ± SD (80% inhibitory concentration of proliferation)
[26] = tested on: intestinal cancer cells (HT29 and Caco-2); experiment: MTT cytotoxicity assay, mean for intestinal cancer cells; conditions: for IC50: mean of HT29 and Caco-2, >512 replaced with 1024, read-out: x¯ -CC ± SD: mean IC50 for intestinal cancer cells; for IC80: read-out: x¯ -CC ± SD: mean IC80 for intestinal cancer cells
[27] = tested on: HT29 (ATCC HTB 38) intestinal cancer cells; experiment: MTT cytotoxicity assay, HT29; conditions: Homo sapiens, HT-29, HT29, MTT, 72 h; for IC50: read-out: IC50 ± SD; for IC80: read-out: IC80 ± SD (80% inhibitory concentration of proliferation)
[28] = mean of 12 strains, >512 replaced with 1024, read-out: x¯ -DB ± SD: mean MIC for diarrheagenic bacteria
[29] = ATCC29212, growth inhibited by ≥80%, read-out: MIC
[30] = ATCC29521, growth inhibited by ≥80%, read-out: MIC
[31] = Bifidobacterium animalis spp. lactis, growth inhibited by ≥80%, read-out: MIC
[32] = ATCC9610, growth inhibited by ≥80%
[33] = ATCC7644, growth inhibited by ≥80%, read-out: MIC
[34] = DSMZ20087, growth inhibited by ≥80%, read-out: MIC
[35] = ATCC25285, growth inhibited by ≥80%, read-out: MIC
[36] = Lactobacillus reuteri, growth inhibited by ≥80%, read-out: MIC
[37] = mean of 9 strains, >512 replaced with 1024
[38] = ATCC14579, growth inhibited by ≥80%
[39] = Salmonella Enteritidis, growth inhibited by ≥80%, read-out: MIC
[40] = Lactobacillus rhamnosus, growth inhibited by ≥80%, read-out: MIC
[41] = Salmonella Typhimurium, growth inhibited by ≥80%, read-out: MIC
[42] = ATCC25922, growth inhibited by ≥80%, read-out: MIC

Compound	MIC [1] [µg/mL]	MIC [2] [µg/mL]	MIC [7, 28] [µg/mL]	MIC [8] [µg/mL]	MIC [10] [µg/mL]	MIC [11] [µg/mL]	MIC [20] [µg/mL]	MIC [3, 29] [µg/mL]	MIC [4, 30] [µg/mL]	MIC [5, 31] [µg/mL]	IC50 [24] [µg/mL]	IC80 [24] [µg/mL]	MIC [9, 33] [µg/mL]	MIC [12, 34] [µg/mL]	MIC [13, 35] [µg/mL]	MIC [15, 36] [µg/mL]	MIC [16, 37] [µg/mL]	MIC ([19]; growth inhibited by ≥80%) [µg/mL]	MIC [21, 40] [µg/mL]	IC50 [27] [µg/mL]	also measured
O=C(OC[C@H]1O[C@@H](OC(=O)c2cc(O)c(O)c(OC(=O)c3cc(O)c(O)c(O)c3)c2)[C@H](OC(=O)c2cc(O)c(O)c(OC(=O)c3cc(O)c(O)c(O)c3)c2)[C@@H](OC(=O)c2cc(O)c(O)c(OC(=O)c3cc(O)c(O)c(O)c3)c2)[C@@H]1OC(=O)c1cc(O)c(O)c(OC(=O)c2cc(O)c(O)c(O)c2)c1)c1cc(O)c(O)c(OC(=O)c2cc(O)c(O)c(O)c2)c1 [TA, tannic acid]	> 512	512 (≈ 301 µM)	779 ± 307 (≈ 458 µM)	128 (≈ 75.2 µM)	512 (≈ 301 µM)	128 (≈ 75.2 µM)	256 (≈ 150 µM)	–	–	–	–	–	–	–	–	–	–	–	–	–	MIC ([3]; ATCC29212): > 512 µg/mL; MIC ([4]; ATCC29521): > 512 µg/mL; MIC ([5]; Bifidobacterium animalis): > 512 µg/mL; MIC ([6]; ATCC9610, […]): 512 µg/mL (≈ 301 µM); MIC ([9]; ATCC7644): > 512 µg/mL; MIC ([12]; DSMZ20087): > 512 µg/mL; MIC ([13]; ATCC25285): > 512 µg/mL; MIC [14]: > 512 µg/mL; MIC [15]: 512 µg/mL (≈ 301 µM); MIC [16]: 725 ± 352 µg/mL (≈ 426 µM); MIC ([17]; ATCC14579, […]): 512 µg/mL (≈ 301 µM); MIC [18]: > 512 µg/mL; MIC ([19]; […]): 512 µg/mL (≈ 301 µM); MIC [21]: > 512 µg/mL; MIC [22]: > 512 µg/mL; MIC ([23]; ATCC25922): > 512 µg/mL
CN(C)[C@@H]1C(O)=C(C(N)=O)C(=O)[C@@]2(O)C(O)=C3C(=O)c4c(O)cccc4[C@@](C)(O)[C@H]3C[C@@H]12 [TC, tetracycline]	2 (≈ 4.5 µM)	4 (≈ 9 µM)	–	1 (≈ 2.25 µM)	32 (≈ 72 µM)	2 (≈ 4.5 µM)	16 (≈ 36 µM)	4 (≈ 9 µM)	16 (≈ 36 µM)	32 (≈ 72 µM)	14.7 ± 2.3 (≈ 33.1 µM)	108 ± 5 (≈ 243 µM)	2 (≈ 4.5 µM)	64 (≈ 144 µM)	0.5 (≈ 1.13 µM)	32 (≈ 72 µM)	19.8 ± 19 (≈ 44.6 µM)	8 (≈ 18 µM)	8 (≈ 18 µM)	393 ± 20 (≈ 884 µM)	MIC [6, 32]: 2 µg/mL (≈ 4.5 µM); MIC ([7]; read-out: MICs): 1 to 4 µg/mL (≈ 2.25 to 9 µM); MIC ([7]; read-out: x¯ -DB ± SD: mean MIC for diarrheagenic bacteria): 4.8 ± 8 µg/mL (≈ 10.8 µM); IC50 [25]: 70.4 ± 15 µg/mL (≈ 158 µM); IC80 [25]: > 512 µg/mL; IC50 [26]: 232 ± 161 µg/mL (≈ 521 µM); IC80 [26]: > 512 µg/mL; MIC [17, 38]: 0.5 µg/mL (≈ 1.13 µM); MIC [18, 39]: 4 µg/mL (≈ 9 µM); IC80 [27]: > 512 µg/mL; MIC [22, 41]: 4 µg/mL (≈ 9 µM); MIC [23, 42]: 1 µg/mL (≈ 2.25 µM)
O=C(O)c1cn(C2CC2)c2cc(N3CCNCC3)c(F)cc2c1=O [CP, ciprofloxacin]	0.016 (≈ 0.0483 µM)	0.016 (≈ 0.0483 µM)	2 ± 4 (≈ 6.04 µM)	0.062 (≈ 0.187 µM)	–	16 (≈ 48.3 µM)	64 (≈ 193 µM)	2 (≈ 6.04 µM)	16 (≈ 48.3 µM)	32 (≈ 96.6 µM)	51.8 ± 27 (≈ 156 µM)	130 ± 24 (≈ 391 µM)	4 (≈ 12.1 µM)	8 (≈ 24.1 µM)	8 (≈ 24.1 µM)	32 (≈ 96.6 µM)	23.6 ± 18 (≈ 71.2 µM)	32 (≈ 96.6 µM)	4 (≈ 12.1 µM)	130 ± 13 (≈ 393 µM)	MIC ([7]; all gram-negative diarrheagenic bacteria, range over strains, read-out: MICs): 0.016 to 0.125 µg/mL (≈ 0.0483 to 0.377 µM); MIC ([7]; gram-positive pathogens, range over strains, read-out: MICs): 1 to 16 µg/mL (≈ 3.02 to 48.3 µM); MIC [17, 38]: 1 µg/mL (≈ 3.02 µM); MIC [18, 39]: 0.031 µg/mL (≈ 0.0936 µM); IC80 [27]: > 512 µg/mL; MIC [22, 41]: 0.031 µg/mL (≈ 0.0936 µM); MIC [23, 42]: 0.062 µg/mL (≈ 0.187 µM)
Cc1ncc([N+](=O)[O-])n1CCO [MA, metronidazole]	> 512	> 512	651 ± 459 (≈ 3810 µM)	> 512	8 (≈ 46.7 µM)	8 (≈ 46.7 µM)	32 (≈ 187 µM)	> 512	> 512	32 (≈ 187 µM)	> 512	> 512	512 (≈ 2990 µM)	64 (≈ 374 µM)	0.5 (≈ 2.92 µM)	256 (≈ 1500 µM)	385 ± 458 (≈ 2250 µM)	> 512	> 512	> 512	MIC [6, 32]: > 512 µg/mL; MIC ([7]; both clostridial species tested, read-out: MICs): 0.5 to 8 µg/mL (≈ 2.92 to 46.7 µM); IC50 ± SD [24]: - (Not active (MIC/IC50/80 > 512 μg/mL, the value 1024 μg/mL was used for average calculation)); IC80 ± SD (80% inhibitory concentration of proliferation) [24]: - (Not active (MIC/IC50/80 > 512 μg/mL, the value 1024 μg/mL was used for average calculation)); MIC ([14]; Clostridium difficile, […], read-out: MIC): 0.5 µg/mL (≈ 2.92 µM); IC50 [25]: > 512 µg/mL; IC80 [25]: > 512 µg/mL; IC50 [26]: > 512 µg/mL; IC80 [26]: > 512 µg/mL; MIC ([17]; ATCC14579, […]): 128 µg/mL (≈ 748 µM); IC80 [27]: > 512 µg/mL; MIC [23, 42]: 0.062 µg/mL (≈ 0.362 µM)

Reference: PMC7558399, “In Vitro Selective Growth-Inhibitory Activities of Phytochemicals, Synthetic Phytochemical Analogs, and Antibiotics against Diarrheagenic/Probiotic Bacteria and Cancer/Normal Intestinal Cells” (Pharmaceuticals, 2020)
